ChEMBL document CHEMBL1125334, “New nonpeptide angiotensin II receptor antagonists. 2. Synthesis, biological properties, and structure-activity relationships of 2-alkyl-4-(biphenylylmethoxy)quinoline derivatives” (J Med Chem, 1992)

Columns and labels:
[1] = molecular target: T1, Type-1 angiotensin II receptor (Cavia porcellus, UniProt Q9WV26); assay: In vitro inhibition of the specific binding of [125I]angiotensin II to a guinea pig adrenal membrane preparation
T1 sequence (Q9WV26 whole entry): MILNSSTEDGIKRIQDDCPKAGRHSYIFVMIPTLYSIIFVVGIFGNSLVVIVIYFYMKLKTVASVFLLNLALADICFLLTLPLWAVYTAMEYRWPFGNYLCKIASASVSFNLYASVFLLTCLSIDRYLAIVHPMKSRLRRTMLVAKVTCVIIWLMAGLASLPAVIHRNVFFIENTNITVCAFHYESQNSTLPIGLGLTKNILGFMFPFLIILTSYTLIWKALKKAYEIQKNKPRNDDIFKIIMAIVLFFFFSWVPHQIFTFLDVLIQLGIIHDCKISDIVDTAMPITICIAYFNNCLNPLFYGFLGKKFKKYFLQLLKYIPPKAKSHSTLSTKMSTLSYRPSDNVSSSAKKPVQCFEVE

[2] = molecular target: Angiotensin II receptor (Rattus norvegicus) (UniProt P29089+P25095+P35351); assay: (§1) Intravenous administration to conscious rats for inhibition of pressor response induced by infusion of AII (angiotensin-II).; format: functional, organism-based
Rattus norvegicus = assay: as §1; format: functional

IC50 [1]	ED50 [2]	Compound	ED50 (Rattus norvegicus)
120 nM	–	CCc1cc(OCc2ccc(-c3ccccc3-c3nnn[nH]3)cc2)c2c(Cl)cccc2n1	–
–	> 5 mg/kg	CCc1cc(OCc2ccc(-c3ccccc3-c3nn[nH]n3)cc2)c2c(Cl)cccc2n1	–
60 nM	–	CCc1cc(OCc2ccc(-c3ccccc3-c3nnn[nH]3)cc2)c2c(C#N)cccc2n1	–
460 nM	> 5 mg/kg	CCc1cc(OCc2ccc(-c3ccccc3-c3nn[nH]n3)cc2)c2ccc(C#N)cc2n1	–
140 nM	–	CCc1cc(OCc2ccc(-c3ccccc3-c3nnn[nH]3)cc2)c2cccc(Cl)c2n1	–
860 nM	–	CCc1cc(OCc2ccc(-c3ccccc3-c3nnn[nH]3)cc2)c2cc(C(F)(F)F)ccc2n1	–
13 nM	–	CCc1cc(OCc2ccc(-c3ccccc3-c3nnn[nH]3)cc2)c2c(C)cccc2n1	–
6300 nM	–	c1ccc(-c2nnn[nH]2)c(-c2ccc(COc3ccnc4ccccc34)cc2)c1	–
360 nM	–	CCc1cc(OCc2ccc(-c3ccccc3-c3nnn[nH]3)cc2)c2cc(C#N)ccc2n1	–
31 nM	–	CCc1cc(OCc2ccc(-c3ccccc3-c3nnn[nH]3)cc2)c2ccccc2n1	1 mg/kg
22 nM	0.32 mg/kg	CCc1cc(OCc2ccc(-c3ccccc3-c3nn[nH]n3)cc2)c2cc(OC)ccc2n1	–
960 nM	> 5 mg/kg	CCc1cc(OCc2ccc(-c3ccccc3-c3nn[nH]n3)cc2)c2cccc(OC)c2n1	–
220 nM	–	CCc1cc(OCc2ccc(-c3ccccc3-c3nnn[nH]3)cc2)c2ccc(OC)cc2n1	–
140 nM	> 5 mg/kg	CCc1cc(OCc2ccc(-c3ccccc3-c3nn[nH]n3)cc2)c2ccc(C)cc2n1	–
–	> 5 mg/kg	CCc1cc(OCc2ccc(-c3ccccc3-c3nn[nH]n3)cc2)c2cc(C#N)ccc2n1	–
–	> 5 mg/kg	CCc1cc(OCc2ccc(-c3ccccc3-c3nn[nH]n3)cc2)c2ccc(OC)cc2n1	–
160 nM	> 5 mg/kg	CCc1cc(OCc2ccc(-c3ccccc3-c3nn[nH]n3)cc2)c2ccc(Cl)cc2n1	–
4600 nM	–	Cc1nc2ccccc2c(OCc2ccc(-c3ccccc3-c3nnn[nH]3)cc2)c1C	–
26 nM	–	CCc1cc(OCc2ccc(-c3ccccc3-c3nnn[nH]3)cc2)c2cc(OC(C)C)ccc2n1	–

More lines, now with the values behind:

Compound	IC50 [1]	ED50 [2]	ED50 (Rattus norvegicus)
CCc1cc(OCc2ccc(-c3ccccc3-c3nn[nH]n3)cc2)c2cc(C(=O)OC)ccc2n1	66 nM	2.1 mg/kg	–
Cc1cc(CCc2ccc(-c3ccccc3-c3nnn[nH]3)cc2)c2ccccc2n1	270 nM	–	–
CCCc1cc(OCc2ccc(-c3ccccc3C(=O)O)cc2)c2ccccc2n1	600 nM	–	–
Cc1ccc2nc(C)cc(OCc3ccc(-c4ccccc4-c4nn[nH]n4)cc3)c2c1	470 nM	> 5 mg/kg	–
CCCCc1nc(Cl)c(CO)n1Cc1ccc(-c2ccccc2-c2nnn[nH]2)cc1	–	0.65 mg/kg	–
CCc1cc(OCc2ccc(-c3ccccc3-c3nn[nH]n3)cc2)c2cc(OC(C)C)ccc2n1	–	0.18 mg/kg	–
CCc1cc(OCc2ccc(-c3ccccc3-c3nn[nH]n3)cc2)c2cc(OCCF)ccc2n1	70 nM	0.34 mg/kg	–
CCc1cc(OCc2ccc(-c3ccccc3-c3nn[nH]n3)cc2)c2cc(C(F)(F)F)ccc2n1	–	> 5 mg/kg	–
Cc1cc(OCc2ccc(-c3ccccc3-c3nn[nH]n3)cc2)c2ccccc2n1	–	0.73 mg/kg	–
CCCCc1nc(Cl)c(CO)n1Cc1ccc(-c2ccccc2-c2nn[nH]n2)cc1 [LOSARTAN POTASSIUM]	18 nM	–	–
CCc1cc(OCc2ccc(-c3ccccc3-c3nn[nH]n3)cc2)c2cc(OCC(F)(F)F)ccc2n1	26 nM	0.71 mg/kg	–
Cc1cc(OCc2ccc(-c3ccccc3C(=O)O)cc2)c2ccccc2n1	180 nM	–	–
Cc1cc(OCc2ccc(-c3ccccc3-c3nn[nH]n3)cc2)c2cccc(C)c2n1	310 nM	> 5 mg/kg	–
CCc1cc(OCc2ccc(-c3ccccc3-c3nn[nH]n3)cc2)c2cccc(C(F)(F)F)c2n1	–	> 5 mg/kg	–
CCCCc1nc(Cl)c(CO)n1Cc1ccc(-c2ccccc2C(=O)O)cc1	430 nM	–	–
Cc1cc(SCc2ccc(-c3ccccc3-c3nn[nH]n3)cc2)c2ccccc2n1	370 nM	–	–
